Assay results: ChEMBL document CHEMBL3808302, “Novel Inhibitors of Toxin HipA Reduce Multidrug Tolerant Persisters” (ACS Med Chem Lett, 2016)
The source made the active and inactive calls. No cut-off for these calls is given here.

Tests used:
Escherichia coli K-12 [1] = test: Inhibition of HipA in Escherichia coli K-12 MG1655 assessed as reduction of persister fraction incubated for 8 hrs in presence of kanamycin relative to control
Escherichia coli K-12 [2] = test: (§1) Inhibition of HipA in Escherichia coli K-12 MG1655 assessed as reduction of persister fraction incubated for 8 hrs in presence of kanamycin
[3] = as §1
Escherichia coli K-12 [4] = test: Inhibition of HipA in Escherichia coli K-12 MG1655 assessed as reduction of persister fraction at 250 uM incubated for 8 hrs in presence of ampicillin relative to control
Escherichia coli [5] = test: Cytotoxicity against Escherichia coli K-12 MG1655 cells at 250 uM; assay type: organism-based
[6] = system: T1, Serine/threonine-protein kinase toxin HipA (Escherichia coli (strain K12)), P23874 [D309Q]; test: (§2) Binding affinity to Escherichia coli HipA D309Q mutant expressed in Escherichia coli BL21 (DE3) by surface plasmon resonance assay
T1 sequence (whole entry): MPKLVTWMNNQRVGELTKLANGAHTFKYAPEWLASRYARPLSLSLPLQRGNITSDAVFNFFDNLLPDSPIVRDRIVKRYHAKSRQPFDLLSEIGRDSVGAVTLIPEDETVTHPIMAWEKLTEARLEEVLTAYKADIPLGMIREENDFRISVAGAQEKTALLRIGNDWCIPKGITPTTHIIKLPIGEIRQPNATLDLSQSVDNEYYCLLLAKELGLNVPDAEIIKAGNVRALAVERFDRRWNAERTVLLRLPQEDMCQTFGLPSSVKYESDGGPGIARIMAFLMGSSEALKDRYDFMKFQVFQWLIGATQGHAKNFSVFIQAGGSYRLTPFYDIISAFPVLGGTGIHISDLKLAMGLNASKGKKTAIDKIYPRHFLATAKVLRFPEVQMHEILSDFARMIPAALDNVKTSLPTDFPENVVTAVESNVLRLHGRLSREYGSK

[7] = target: Serine/threonine-protein kinase toxin HipA (Escherichia coli (strain K12), UniProt P23874, D309Q); test: as §2
Escherichia coli K-12 [8] = test: (§3) Inhibition of HipA in Escherichia coli K-12 MG1655 assessed as reduction of persister fraction incubated for 8 hrs in presence of ampicillin
[9] = as §3
[10] = system: T1, Serine/threonine-protein kinase toxin HipA (Escherichia coli (strain K12)), P23874 [D309Q]; test: Binding affinity to Escherichia coli HipA D309Q mutant expressed in Escherichia coli BL21 (DE3) assessed as slow-on/slow-off type binding at 3.125 to 100 uM by surface plasmon resonance assay
[11] = system: T1, Serine/threonine-protein kinase toxin HipA (Escherichia coli (strain K12)), P23874 [D309Q]; test: Binding affinity to Escherichia coli HipA D309Q mutant expressed in Escherichia coli BL21 (DE3) assessed as slow-on/fast-off type binding at 3.125 to 87.5 uM by surface plasmon resonance assay
[12] = system: T1, Serine/threonine-protein kinase toxin HipA (Escherichia coli (strain K12)), P23874 [D309Q]; test: Binding affinity to Escherichia coli HipA D309Q mutant expressed in Escherichia coli BL21 (DE3) assessed as slow-on/fast-off type binding at 0.00015 to 8.75 uM by surface plasmon resonance assay
[13] = system: T1, Serine/threonine-protein kinase toxin HipA (Escherichia coli (strain K12)), P23874 [D309Q]; test: Binding affinity to Escherichia coli HipA D309Q mutant expressed in Escherichia coli BL21 (DE3) assessed as fast-on/fast-off type binding at 6.25 to 100 uM by surface plasmon resonance assay
Escherichia coli [14] = test: Antipersistence effect in hipA knockout Escherichia coli assessed as reduction of persister fraction at 200 uM in presence of ampicillin; assay type: functional, organism-based

| Compound | fold change (FC) (Escherichia coli K-12 [1]) | inhibition (Escherichia coli K-12 [2]) | EC50 [3] [µM] | fold change (FC) (Escherichia coli K-12 [4]) | Activity (Escherichia coli [5]) | Activity [6] | Kd [7] [µM] | inhibition (Escherichia coli K-12 [8]) | EC50 [9] [µM] | Activity [10] | Activity [11] | Activity [12] | Activity [13] | Activity (Escherichia coli [14]) |
| --- | --- | --- | --- | --- | --- | --- | --- | --- | --- | --- | --- | --- | --- | --- |
| COc1cc(NC(=O)c2cc3nc(-c4ccc(F)cc4)cc(C)n3n2)cc([N+](=O)[O-])c1 | 5 | Dose-dependent effect | 101 | 5 | Non-toxic | Dose-dependent effect | 43 | Dose-dependent effect | 84 | Active |  |  |  |  |
| CCOC(=O)c1ccc(NC(=O)CSc2nnc(CSc3nc(C)cc(C)n3)o2)cc1 | 3 | Dose-dependent effect | 43 | 2 | Non-toxic | Dose-dependent effect | 35 | Dose-dependent effect | 116 |  | Active | Active |  |  |
| CCN1CCN(CCNC(=O)c2cccc(Nc3cc(-c4ccccc4)ncn3)c2)CC1 | 5 | Dose-dependent effect | 111 | 5 | Non-toxic | Dose-dependent effect | 54 | Dose-dependent effect | 126 |  |  |  | Active |  |
| CCc1ccc(C2C(C(=O)c3ccc(OC)cc3)=C(O)C(=O)N2CCc2c[nH]c3ccccc23)cc1 (stereo not drawn) | > 1 | Dose-dependent effect | 28 | 5 | Non-toxic | Dose-dependent effect | 0.27 | Dose-dependent effect | 46 |  | Active | Active |  | inactive |
